Test results reported in ChEMBL document CHEMBL1201862, “PubChem BioAssay data set” (2004).
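Grown in 96-well plates, cells were treated for 48 hours with each compound at five concentrations. Insufficient inhibition: endpoint recorded as highest concentration tested. Abbreviation: GI50, concentration required for 50% inhibition of growth.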 Calls of active or inactive are those of the source. Cut-off read from the data, not from the text of the source: active = GI50 up to about 1.1 µM and inactive = higher.

Columns and labels:
Test in all cases: NCI-60 cell line screen, 48 h
[1] = tested on: 786-0
[2] = tested on: A498
[3] = tested on: A549
[4] = tested on: BT-549
[5] = tested on: CCRF-CEM
[6] = tested on: COLO 205
[7] = tested on: DU-145
[8] = tested on: EKVX
[9] = tested on: HCT-116
[10] = tested on: HOP-62
[11] = tested on: IGROV-1
[12] = tested on: K562
[13] = tested on: LOX IMVI
[14] = tested on: MDA-MB-435
[15] = tested on: NCI-H522
[16] = tested on: OVCAR-3
[17] = tested on: OVCAR-4
[18] = tested on: OVCAR-5
[19] = tested on: PC-3
[20] = tested on: RPMI-8226
[21] = tested on: SF-295
[22] = tested on: SK-MEL-5
[23] = tested on: SK-OV-3
[24] = tested on: SW-620
[25] = tested on: TK-10
[26] = tested on: UACC-257
[27] = tested on: UACC-62
[28] = tested on: ACHN
[29] = tested on: CAKI-1
[30] = tested on: HCT-15
[31] = tested on: HL-60
[32] = tested on: HT-29
[33] = tested on: Hs-578T
[34] = tested on: KM12
[35] = tested on: M14
[36] = tested on: MCF7
[37] = tested on: MDA-MB-231
[38] = tested on: MDA-N
[39] = tested on: MOLT-4
[40] = tested on: Malme-3M
[41] = tested on: NCI-H226
[42] = tested on: NCI-H23
[43] = tested on: NCI-H460
[44] = tested on: NCI/ADR-RES
[45] = tested on: OVCAR-8
[46] = tested on: RXF 393
[47] = tested on: SF-268
[48] = tested on: SF-539
[49] = tested on: SK-MEL-28
[50] = tested on: SK-MEL-2
[51] = tested on: SN12C
[52] = tested on: SNB-19
[53] = tested on: SNB-75
[54] = tested on: SR
[55] = tested on: U-251

`COc1cc2c[n+](C)c3c4cc(OC)c(OC)cc4ccc3c2cc1OC` was tested, and the GI50 [1] was > 58.5 µM (inactive), the GI50 [2] was > 100 µM (inactive) and the GI50 [3] was 58.7 µM (inactive). The GI50 [4] was 20.4 µM (inactive), the GI50 [5] was 18.8 µM (inactive) and the GI50 [6] was 11.8 µM (inactive). For the same compound, the GI50 [7] was 25 µM (inactive), the GI50 [8] was > 63 µM (inactive) and the GI50 [9] was 68.5 µM (inactive). For the same compound, the GI50 [10] was 97.7 µM (inactive), the GI50 [11] was 23 µM (inactive) and the GI50 [12] was 16.6 µM (inactive). The GI50 [13] was 54 µM (inactive), the GI50 [14] was > 85.7 µM (inactive) and the GI50 [15] was 7.11 µM (inactive). The GI50 [16] was 29.3 µM (inactive), the GI50 [17] was > 38.5 µM (inactive) and the GI50 [18] was > 100 µM (inactive). The GI50 [19] was 74.1 µM (inactive), the GI50 [20] was 57.1 µM (inactive) and the GI50 [21] was 69 µM (inactive). The GI50 [22] was 32 µM (inactive), the GI50 [23] was 88.9 µM (inactive) and the GI50 [24] was > 66.1 µM (inactive). The GI50 [25] was > 100 µM (inactive), the GI50 [26] was 74.1 µM (inactive) and the GI50 [27] was > 82.8 µM (inactive).

For `Cn1c(=O)sc2cc(C(=S)N3CCCCC3)ccc21`, the GI50 [1] was > 100 µM (inactive), the GI50 [2] was 59.7 µM (inactive) and the GI50 [28] was 96.2 µM (inactive). For the same compound, the GI50 [4] was 66.4 µM (inactive), the GI50 [29] was 46.9 µM (inactive) and the GI50 [5] was 16.5 µM (inactive). For the same compound, the GI50 [6] was 57.9 µM (inactive), the GI50 [7] was > 100 µM (inactive) and the GI50 [8] was 16.1 µM (inactive). For the same compound, the GI50 [9] was 89.7 µM (inactive), the GI50 [30] was 93.8 µM and the GI50 [31] was 17.7 µM (inactive). The GI50 [10] was > 100 µM (inactive), the GI50 [32] was > 100 µM (inactive) and the GI50 [33] was 30.8 µM (inactive). For the same compound, the GI50 [11] was 23.2 µM (inactive), the GI50 [12] was 47.9 µM (inactive) and the GI50 [34] was > 100 µM (inactive). The GI50 [13] was 81.5 µM (inactive), the GI50 [35] was > 100 µM (inactive) and the GI50 [36] was > 100 µM (inactive). The GI50 [37] was 45.9 µM (inactive), the GI50 [14] was > 100 µM (inactive) and the GI50 [38] was > 100 µM (inactive). For the same compound, the GI50 [39] was 27.6 µM (inactive), the GI50 [40] was 0.865 µM (active) and the GI50 [41] was 18.6 µM (inactive). The GI50 [42] was > 100 µM (inactive), the GI50 [43] was > 100 µM (inactive) and the GI50 [44] was 29.6 µM (inactive). For the same compound, the GI50 [16] was 69.2 µM (inactive), the GI50 [18] was > 100 µM (inactive) and the GI50 [45] was 25.4 µM (inactive). The GI50 [19] was 94.6 µM (inactive), the GI50 [20] was 61 µM (inactive) and the GI50 [46] was 38.8 µM (inactive). For the same compound, the GI50 [47] was 25.6 µM (inactive), the GI50 [21] was 92.7 µM (inactive) and the GI50 [48] was 54.5 µM (inactive). For the same compound, the GI50 [49] was 56.4 µM (inactive), the GI50 [50] was > 100 µM (inactive) and the GI50 [22] was > 100 µM (inactive). For the same compound, the GI50 [23] was > 100 µM (inactive), the GI50 [51] was > 100 µM (inactive) and the GI50 [52] was > 100 µM (inactive). For the same compound, the GI50 [53] was 19.9 µM (inactive), the GI50 [54] was 22 µM (inactive) and the GI50 [24] was > 100 µM (inactive). For the same compound, the GI50 [25] was > 100 µM (inactive), the GI50 [55] was 41.8 µM (inactive) and the GI50 [26] was > 100 µM (inactive). For the same compound, the GI50 [27] was > 100 µM (inactive).
